Assay results as given in ChEMBL document CHEMBL1146789, “(+/-)8-Amino-5,6,7,8-tetrahydroisoquinolines as novel antinociceptive agents” (Bioorg Med Chem Lett, 2004).
The source made the active and inactive calls. The rule behind the calls is not given here.

Key:
Mus musculus [1] = assay: Antinociceptive action was determined by tail-flick assay in mouse administered intrathecally at a dose of 20-25 ug; assay type: functional
Mus musculus [2] = assay: Antinociceptive action was determined by tail-flick assay in mouse administered subcutaneously at a dose of 10 mg/kg; assay type: functional; conditions: route subcutaneous
Mus musculus [3] = assay: Antinociceptive action was determined by hotplate assay in mouse administered subcutaneously; assay type: functional; conditions: sc
[4] = molecular target: T1, Neuronal acetylcholine receptor; alpha4/beta2 (Homo sapiens, UniProt P17787+P43681); assay: Affinity for nicotinic acetylcholine receptor alpha4-beta2; assay type: protein-complex assay
Mus musculus [5] = assay: Antinociceptive action was determined by hotplate assay in mouse administered subcutaneously at a dose of 10 mg/kg; assay type: functional; conditions: route subcutaneous
[6] = molecular target: 5-hydroxytryptamine receptor 1A (Homo sapiens, UniProt P08908); assay: Affinity towards human 5-hydroxytryptamine 1A serotonin receptor
[7] = molecular target: 5-hydroxytryptamine receptor 1B (Homo sapiens, UniProt P28222); assay: Affinity towards human 5-hydroxytryptamine 1B serotonin receptor
[8] = molecular target: 5-hydroxytryptamine receptor 2B (Homo sapiens, UniProt P41595); assay: Affinity towards human 5-hydroxytryptamine 2B serotonin receptor
[9] = molecular target: Serotonin 3 (5-HT3) receptor; assay: Affinity towards human 5-hydroxytryptamine 3 serotonin receptor; assay type: protein-complex assay
[10] = molecular target: 5-hydroxytryptamine receptor 2C (Homo sapiens, UniProt P28335); assay: Affinity towards human 5-hydroxytryptamine 2C serotonin receptor
[11] = molecular target: 5-hydroxytryptamine receptor 6 (Homo sapiens, UniProt P50406); assay: Affinity towards human 5-hydroxytryptamine 6 serotonin receptor
[12] = molecular target: 5-hydroxytryptamine receptor 5A (Homo sapiens, UniProt P47898); assay: Affinity towards human 5-hydroxytryptamine 5A serotonin receptor
[13] = molecular target: 5-hydroxytryptamine receptor 7 (Homo sapiens, UniProt P34969); assay: Affinity towards human 5-hydroxytryptamine 7 serotonin receptor
Adenosine receptor A1 = Adenosine receptor A1 (Homo sapiens, UniProt P30542); assay: Affinity towards human adenosine A1 receptor
[14] = molecular target: Adrenergic receptor alpha-2 (Homo sapiens, UniProt P08913+P18825+P18089); assay: Affinity towards alpha-2 adrenergic receptor; assay type: protein assay
Adenosine receptor A3 = Adenosine receptor A3 (Homo sapiens, UniProt P0DMS8); assay: Affinity towards human adenosine A3 receptor
Adenosine A2 receptor = Adenosine A2 receptor (Homo sapiens, UniProt P29275+P29274); assay: Affinity towards human adenosine A2 receptor; assay type: protein assay
[15] = molecular target: Adrenergic receptor alpha-1 (Homo sapiens, UniProt P35348+P25100+P35368); assay: Affinity towards alpha-1 adrenergic receptor; assay type: protein assay
[16] = molecular target: Beta-2 adrenergic receptor (Homo sapiens, UniProt P07550); assay: Affinity towards human beta-2 adrenergic receptor
[17] = molecular target: GABA-A receptor; anion channel; assay: Binding affinity for GABA-A central benzodiazepine receptor; assay type: protein-complex assay
Translocator protein = Translocator protein (Homo sapiens, UniProt P30536); assay: Binding affinity for peripheral benzodiazepine receptor
[18] = Binding towards calcium channel(Ca++); NA- Not active
[19] = Binding towards chloride channel(Cl-); NA = Not active
D(2) dopamine receptor = D(2) dopamine receptor (Homo sapiens, UniProt P14416); assay: Affinity towards human dopamine receptor D2
[20] = molecular target: Sodium-dependent dopamine transporter (Homo sapiens) (UniProt Q01959); assay: Binding towards dopamine transporter; NA- Not active
D(1A) dopamine receptor = D(1A) dopamine receptor (Homo sapiens, UniProt P21728); assay: Affinity towards human Dopamine receptor D1
D(4) dopamine receptor = D(4) dopamine receptor (Homo sapiens, UniProt P21917); assay: Affinity towards human dopamine receptor D4
D(3) dopamine receptor = D(3) dopamine receptor (Homo sapiens, UniProt P35462); assay: Affinity towards human dopamine receptor D3
Histamine H1 receptor = Histamine H1 receptor (Homo sapiens, UniProt P35367); assay: Affinity towards histamine H1 receptor
Histamine H2 receptor = Histamine H2 receptor (Homo sapiens, UniProt P25021); assay: Affinity towards histamine H2 receptor
Mus musculus [21] = assay: Antinociceptive action was determined by tail-flick assay in mouse administered intrathecally; assay type: functional; conditions: central
Mus musculus [22] = assay: Antinociceptive action was determined by tail-flick assay in mouse administered subcutaneously; assay type: functional; conditions: sc
[23] = molecular target: Sodium-dependent noradrenaline transporter (Homo sapiens) (UniProt P23975); assay: Binding towards norepinephrine transporter; NA= Not active
[24] = molecular target: Muscarinic acetylcholine receptor M5 (Homo sapiens, UniProt P08912); assay: Affinity towards human Muscarinic acetylcholine receptor M5
[25] = molecular target: Muscarinic acetylcholine receptor M3 (Homo sapiens, UniProt P20309); assay: Affinity towards human muscarinic acetylcholine receptor M3
[26] = molecular target: Muscarinic acetylcholine receptor M2 (Homo sapiens, UniProt P08172); assay: Affinity towards human muscarinic acetylcholine receptor M2
[27] = molecular target: Muscarinic acetylcholine receptor M4 (Homo sapiens, UniProt P08173); assay: Affinity towards human Muscarinic acetylcholine receptor M4
[28] = molecular target: Kappa-type opioid receptor (Homo sapiens, UniProt P41145); assay: Affinity towards kappa opioid receptor
[29] = molecular target: Delta-type opioid receptor (Homo sapiens, UniProt P41143); assay: Affinity towards opioid receptor delta 1
Mu-type opioid receptor = Mu-type opioid receptor (Homo sapiens, UniProt P35372); assay: Affinity towards opioid receptor mu 1
[30] = molecular target: A-type voltage-gated potassium channel KCND3 (Homo sapiens, UniProt Q9UK17); assay: Binding towards potassium channel(K+); NA = Not active
[31] = Binding towards sodium channel(Na+); NA = Not active
[32] = molecular target: Muscarinic acetylcholine receptor M1 (Homo sapiens, UniProt P11229); assay: Affinity towards human muscarinic acetylcholine receptor M1
D(1B) dopamine receptor = D(1B) dopamine receptor (Homo sapiens, UniProt P21918); assay: Affinity towards human dopamine receptor D5
Mus musculus [33] = species: Mus musculus; assay: Antinociceptive action was determined; P- Possess activity; assay type: functional, organism-based
[34] = molecular target: T1, Neuronal acetylcholine receptor; alpha4/beta2; assay: Affinity for nicotinic acetylcholine receptor alpha4-beta2; NA = Not active; assay type: protein-complex assay

T1 sequence (P17787 whole entry): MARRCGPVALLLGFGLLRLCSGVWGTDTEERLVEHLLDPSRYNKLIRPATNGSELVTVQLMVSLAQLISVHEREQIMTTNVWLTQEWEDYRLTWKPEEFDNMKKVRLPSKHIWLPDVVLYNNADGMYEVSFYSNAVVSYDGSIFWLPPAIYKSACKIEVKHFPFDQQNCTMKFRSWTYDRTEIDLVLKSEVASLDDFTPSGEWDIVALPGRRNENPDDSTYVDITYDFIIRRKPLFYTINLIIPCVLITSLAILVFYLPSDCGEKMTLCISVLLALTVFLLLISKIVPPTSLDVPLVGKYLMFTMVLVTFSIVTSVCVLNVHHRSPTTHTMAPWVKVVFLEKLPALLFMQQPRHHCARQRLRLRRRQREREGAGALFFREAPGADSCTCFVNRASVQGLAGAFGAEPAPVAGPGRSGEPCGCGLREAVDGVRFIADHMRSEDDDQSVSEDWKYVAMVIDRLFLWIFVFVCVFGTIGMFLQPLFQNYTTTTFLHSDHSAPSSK
T1 sequence (P43681 whole entry): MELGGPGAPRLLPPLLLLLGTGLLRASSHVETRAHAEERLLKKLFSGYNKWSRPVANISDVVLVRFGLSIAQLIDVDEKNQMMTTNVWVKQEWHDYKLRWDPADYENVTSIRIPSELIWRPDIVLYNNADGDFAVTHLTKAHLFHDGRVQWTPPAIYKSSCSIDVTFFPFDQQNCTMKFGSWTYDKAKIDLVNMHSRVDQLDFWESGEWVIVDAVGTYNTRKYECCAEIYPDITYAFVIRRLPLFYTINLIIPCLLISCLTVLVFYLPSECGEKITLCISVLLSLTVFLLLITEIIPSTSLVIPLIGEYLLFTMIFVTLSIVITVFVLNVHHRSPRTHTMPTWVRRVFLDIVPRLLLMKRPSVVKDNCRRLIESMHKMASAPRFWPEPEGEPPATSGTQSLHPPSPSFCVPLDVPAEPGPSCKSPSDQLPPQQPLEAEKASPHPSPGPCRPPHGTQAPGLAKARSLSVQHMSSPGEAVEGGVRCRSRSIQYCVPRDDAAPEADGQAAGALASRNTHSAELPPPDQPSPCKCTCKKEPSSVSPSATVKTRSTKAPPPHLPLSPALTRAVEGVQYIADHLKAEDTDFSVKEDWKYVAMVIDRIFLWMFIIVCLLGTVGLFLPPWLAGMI
Sequence of Delta-type opioid receptor (P41143 whole entry): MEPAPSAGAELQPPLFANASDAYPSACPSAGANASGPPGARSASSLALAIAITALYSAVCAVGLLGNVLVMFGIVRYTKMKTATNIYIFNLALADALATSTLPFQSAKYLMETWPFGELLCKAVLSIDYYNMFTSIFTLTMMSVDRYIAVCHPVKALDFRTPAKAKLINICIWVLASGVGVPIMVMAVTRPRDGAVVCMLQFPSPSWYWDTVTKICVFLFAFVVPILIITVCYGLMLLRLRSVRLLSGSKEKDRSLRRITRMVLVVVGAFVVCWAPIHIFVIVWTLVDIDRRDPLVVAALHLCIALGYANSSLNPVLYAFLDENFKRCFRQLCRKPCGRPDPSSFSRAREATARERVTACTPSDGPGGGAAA
Sequence of Translocator protein (P30536 whole entry): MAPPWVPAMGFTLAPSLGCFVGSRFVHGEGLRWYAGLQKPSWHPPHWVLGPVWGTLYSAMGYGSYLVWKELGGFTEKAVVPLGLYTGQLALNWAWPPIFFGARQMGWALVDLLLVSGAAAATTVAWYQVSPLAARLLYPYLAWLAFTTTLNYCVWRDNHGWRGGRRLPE
Sequence of Histamine H2 receptor (P25021 whole entry): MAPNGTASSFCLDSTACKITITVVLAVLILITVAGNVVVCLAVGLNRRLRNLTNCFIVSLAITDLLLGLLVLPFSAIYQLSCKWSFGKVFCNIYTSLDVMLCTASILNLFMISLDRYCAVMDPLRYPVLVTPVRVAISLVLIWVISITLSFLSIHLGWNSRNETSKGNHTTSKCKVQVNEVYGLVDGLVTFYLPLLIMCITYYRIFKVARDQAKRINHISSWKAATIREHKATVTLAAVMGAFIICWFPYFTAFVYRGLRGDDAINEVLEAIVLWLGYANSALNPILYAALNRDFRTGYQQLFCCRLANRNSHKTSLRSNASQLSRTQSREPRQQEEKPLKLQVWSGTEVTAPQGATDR
Sequence of 5-hydroxytryptamine receptor 6 (P50406 whole entry): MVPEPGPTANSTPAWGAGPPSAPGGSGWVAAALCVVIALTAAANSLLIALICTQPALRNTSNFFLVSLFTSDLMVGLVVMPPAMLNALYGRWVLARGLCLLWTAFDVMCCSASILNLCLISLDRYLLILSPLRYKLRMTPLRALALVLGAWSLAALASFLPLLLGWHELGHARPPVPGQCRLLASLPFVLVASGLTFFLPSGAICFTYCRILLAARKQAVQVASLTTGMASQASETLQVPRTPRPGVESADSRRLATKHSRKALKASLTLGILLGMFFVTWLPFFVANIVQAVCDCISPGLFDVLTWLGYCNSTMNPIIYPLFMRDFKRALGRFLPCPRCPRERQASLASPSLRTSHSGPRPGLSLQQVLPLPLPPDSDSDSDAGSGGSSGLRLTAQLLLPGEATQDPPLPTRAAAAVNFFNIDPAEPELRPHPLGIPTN
Sequence of Sodium-dependent noradrenaline transporter (Homo sapiens) (P23975 whole entry): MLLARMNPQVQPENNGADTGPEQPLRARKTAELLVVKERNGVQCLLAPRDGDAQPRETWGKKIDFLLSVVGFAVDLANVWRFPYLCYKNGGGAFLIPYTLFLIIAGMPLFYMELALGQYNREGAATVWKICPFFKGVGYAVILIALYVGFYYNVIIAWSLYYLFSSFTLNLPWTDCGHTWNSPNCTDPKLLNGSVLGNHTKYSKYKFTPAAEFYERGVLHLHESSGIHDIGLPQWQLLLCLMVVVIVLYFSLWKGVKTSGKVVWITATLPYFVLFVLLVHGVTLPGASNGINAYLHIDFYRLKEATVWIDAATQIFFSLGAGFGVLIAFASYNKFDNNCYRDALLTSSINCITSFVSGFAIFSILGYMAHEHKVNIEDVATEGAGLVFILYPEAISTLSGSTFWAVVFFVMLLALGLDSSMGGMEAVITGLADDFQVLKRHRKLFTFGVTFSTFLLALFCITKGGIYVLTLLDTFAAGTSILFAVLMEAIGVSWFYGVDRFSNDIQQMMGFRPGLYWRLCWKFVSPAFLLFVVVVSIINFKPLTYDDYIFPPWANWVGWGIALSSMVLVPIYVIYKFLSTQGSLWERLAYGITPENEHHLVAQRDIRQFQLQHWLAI
Sequence of Muscarinic acetylcholine receptor M3 (P20309 whole entry): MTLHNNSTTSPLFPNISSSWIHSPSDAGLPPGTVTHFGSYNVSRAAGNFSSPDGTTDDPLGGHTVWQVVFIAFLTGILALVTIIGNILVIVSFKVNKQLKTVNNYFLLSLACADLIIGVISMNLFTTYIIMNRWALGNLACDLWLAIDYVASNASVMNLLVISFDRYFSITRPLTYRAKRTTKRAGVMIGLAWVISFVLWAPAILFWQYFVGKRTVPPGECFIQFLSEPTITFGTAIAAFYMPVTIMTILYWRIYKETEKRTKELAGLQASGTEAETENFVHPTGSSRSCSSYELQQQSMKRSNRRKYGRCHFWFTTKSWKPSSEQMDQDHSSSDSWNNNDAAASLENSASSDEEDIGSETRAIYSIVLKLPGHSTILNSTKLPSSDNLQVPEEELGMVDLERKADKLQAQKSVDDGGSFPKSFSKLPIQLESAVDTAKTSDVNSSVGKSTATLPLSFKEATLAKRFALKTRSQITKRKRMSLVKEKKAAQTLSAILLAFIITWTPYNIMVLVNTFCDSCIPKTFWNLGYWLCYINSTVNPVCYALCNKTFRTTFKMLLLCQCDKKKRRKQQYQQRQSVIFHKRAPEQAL
Sequence of Muscarinic acetylcholine receptor M4 (P08173 whole entry): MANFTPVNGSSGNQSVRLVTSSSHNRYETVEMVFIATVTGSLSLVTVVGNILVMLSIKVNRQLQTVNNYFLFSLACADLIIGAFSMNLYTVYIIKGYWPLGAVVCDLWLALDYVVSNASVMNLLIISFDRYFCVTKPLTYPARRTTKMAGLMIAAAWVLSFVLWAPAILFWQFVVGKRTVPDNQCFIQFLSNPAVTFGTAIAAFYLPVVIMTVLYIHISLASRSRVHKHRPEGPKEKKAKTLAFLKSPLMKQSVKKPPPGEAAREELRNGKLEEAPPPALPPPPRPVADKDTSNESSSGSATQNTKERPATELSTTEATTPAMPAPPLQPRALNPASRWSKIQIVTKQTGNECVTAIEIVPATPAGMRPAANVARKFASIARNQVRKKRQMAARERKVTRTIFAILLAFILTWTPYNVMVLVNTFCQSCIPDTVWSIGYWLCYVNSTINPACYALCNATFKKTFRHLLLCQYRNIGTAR
Sequence of Mu-type opioid receptor (P35372 whole entry): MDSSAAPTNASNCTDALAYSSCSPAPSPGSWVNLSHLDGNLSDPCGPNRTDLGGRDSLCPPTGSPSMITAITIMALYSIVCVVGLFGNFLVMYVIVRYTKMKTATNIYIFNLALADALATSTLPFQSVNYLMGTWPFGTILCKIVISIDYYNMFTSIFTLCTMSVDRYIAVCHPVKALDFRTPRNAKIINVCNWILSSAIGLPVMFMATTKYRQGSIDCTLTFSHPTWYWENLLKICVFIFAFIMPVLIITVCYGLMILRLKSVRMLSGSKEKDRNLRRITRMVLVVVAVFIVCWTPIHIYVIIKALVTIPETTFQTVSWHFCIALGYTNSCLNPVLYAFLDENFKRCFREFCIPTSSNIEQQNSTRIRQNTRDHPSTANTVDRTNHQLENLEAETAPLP
Sequence of D(3) dopamine receptor (P35462 whole entry): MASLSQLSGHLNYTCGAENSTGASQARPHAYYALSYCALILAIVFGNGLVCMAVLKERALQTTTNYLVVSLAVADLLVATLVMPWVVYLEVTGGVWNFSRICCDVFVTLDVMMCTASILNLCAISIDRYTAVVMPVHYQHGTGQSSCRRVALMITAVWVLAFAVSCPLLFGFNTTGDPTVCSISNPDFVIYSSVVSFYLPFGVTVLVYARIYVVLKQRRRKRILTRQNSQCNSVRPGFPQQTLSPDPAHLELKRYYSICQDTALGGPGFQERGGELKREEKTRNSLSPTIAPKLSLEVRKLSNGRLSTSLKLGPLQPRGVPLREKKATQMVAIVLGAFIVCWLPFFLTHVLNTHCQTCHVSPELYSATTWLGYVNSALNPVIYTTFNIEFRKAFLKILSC

## CN(C)C1CCCc2ccncc21 (stereo not given)
Mus musculus [1]
  MPE: 8%
Mus musculus [2]
  MPE: 2%
Mus musculus [3]
  ED50: 3.9 mg/kg
[4]
  Ki: 0.33 µM

## CCCNC1CCCc2ccncc21 (stereo not given)
[4]
  Ki: > 10 µM

## NC1CCCc2ccncc21 (stereo not given)
Mus musculus [5]
  MPE: 10%
Mus musculus [2]
  MPE: 1%
[4]
  Ki: > 10 µM

## CCCN(C)C1CCCc2ccncc21 (stereo not given)
[4]
  Ki: > 10 µM

## c1cc2c(cn1)C(N1CCCC1)CCC2 (stereo not given)
Mus musculus [5]
  MPE: 11%
Mus musculus [1]
  MPE: 6%
Mus musculus [2]
  MPE: 2%
[4]
  Ki: > 10 µM

## CCN(C)C1CCCc2ccncc21.O=C(O)/C=C\C(=O)O.O=C(O)/C=C\C(=O)O (stereo not given)
[6]
  Ki: > 10 µM
[7]
  Ki: > 10 µM
[8]
  Ki: > 10 µM
[9]
  Ki: > 10 µM
[10]
  Ki: > 10 µM
[11]
  Ki: > 10 µM
[12]
  Ki: > 10 µM
[13]
  Ki: > 10 µM
Adenosine receptor A1
  Ki: > 10 µM
[14]
  Ki: > 10 µM
Adenosine receptor A3
  Ki: > 10 µM
Adenosine A2 receptor
  Ki: > 10 µM
[15]
  Ki: > 10 µM
[16]
  Ki: > 10 µM
[17]
  Ki: > 10 µM
Translocator protein
  Ki: > 10 µM
[18]
  Activity: inactive
[19]
  Activity: inactive
D(2) dopamine receptor
  Ki: > 10 µM
[20]
  Activity: inactive
D(1A) dopamine receptor
  Ki: > 10 µM
D(4) dopamine receptor
  Ki: > 10 µM
D(3) dopamine receptor
  Ki: > 10 µM
Histamine H1 receptor
  Ki: > 10 µM
Histamine H2 receptor
  Ki: > 10 µM
Mus musculus [3]
  ED50: 0.2 mg/kg
Mus musculus [21]
  ED50: 12 µg/mouse
Mus musculus [22]
  ED50: 0.6 mg/kg
[23]
  Activity: inactive
[24]
  Ki: > 10 µM
[25]
  Ki: > 10 µM
[26]
  Ki: > 10 µM
[27]
  Ki: > 10 µM
[28]
  Ki: > 10 µM
[29]
  Ki: > 10 µM
Mu-type opioid receptor
  Ki: > 10 µM
[30]
  Activity: Not Active
[31]
  Activity: inactive
[32]
  Ki: > 10 µM
D(1B) dopamine receptor
  Ki: > 10 µM
[4]
  Ki: 0.93 µM

## CNC1CCCc2ccncc21 (stereo not given)
Mus musculus [5]
  MPE: 2%
Mus musculus [2]
  MPE: 0%
Mus musculus [21]
  ED50: 13 µg/mouse
[4]
  Ki: > 10 µM

## COc1cc2c(cn1)C1NCCC1CC2 (stereo not given)
Mus musculus [33]
  Activity: Active
[34]
  Ki: Not Active

## CN1CCC[C@H]1c1cccnc1 [NICOTINE]
Mus musculus [3]
  ED50: 0.5 mg/kg
Mus musculus [21]
  ED50: 12 µg/mouse
Mus musculus [22]
  ED50: 1.5 mg/kg

## CN1CCC2CCc3ccncc3C21 (stereo not given)
Mus musculus [33]
  Activity: Active
[34]
  Ki: Not Active
